The text below walks through data of patent US20250161307A1, “PYRAZOLOPYRIMIDINES AS MODULATORS OF SPERMINE OXIDASE” (Janssen Pharmaceutica NV, priority 2022, published 2025).

The target of experiment [1] is T1, SMOX (Homo sapiens (Human), UniProt Q9NWM0). Nature of the experiment: Cellular Thermal Shift Assay (CETSA) with alphaLISA detection of intact SMOX in A549 cells. It is filed as cell-based. Particulars: 1 hour compound incubation at 37° C., heated to 55° C. for 5 minutes. An excerpt: The Cellular Thermal Shift Assay (CETSA) is a biophysical assay based on the principle of ligand-induced thermal stabilization of target proteins, meaning that a protein denaturing temperature will change upon ligand interaction. Thus, by heating samples (i.e. cells, ex vivo samples) to different temperatures, and quantifying conformationally intact proteins we can detect compound-protein interactions after compound treatment. CETSA allows direct monitoring of ligand binding to a specific target (target engagement). In our study, we have developed a suitable detection system that will detect intact SMOX using the alphaLISA. […] The detection of compound -SMOX ligand binding is performed using A549 cells. This adenocarcinoma human alveolar basal epithelial cell line expresses high levels of SMOX. Their use has been widely reported in the literature with respect to the investigation of the SMOX pathway. Using SMOX high-expressing cells with CETSA and alphaLISA systems provides the optimal platform for screening small molecules for SMOX inhibition.
T1 sequence (Q9NWM0 whole entry): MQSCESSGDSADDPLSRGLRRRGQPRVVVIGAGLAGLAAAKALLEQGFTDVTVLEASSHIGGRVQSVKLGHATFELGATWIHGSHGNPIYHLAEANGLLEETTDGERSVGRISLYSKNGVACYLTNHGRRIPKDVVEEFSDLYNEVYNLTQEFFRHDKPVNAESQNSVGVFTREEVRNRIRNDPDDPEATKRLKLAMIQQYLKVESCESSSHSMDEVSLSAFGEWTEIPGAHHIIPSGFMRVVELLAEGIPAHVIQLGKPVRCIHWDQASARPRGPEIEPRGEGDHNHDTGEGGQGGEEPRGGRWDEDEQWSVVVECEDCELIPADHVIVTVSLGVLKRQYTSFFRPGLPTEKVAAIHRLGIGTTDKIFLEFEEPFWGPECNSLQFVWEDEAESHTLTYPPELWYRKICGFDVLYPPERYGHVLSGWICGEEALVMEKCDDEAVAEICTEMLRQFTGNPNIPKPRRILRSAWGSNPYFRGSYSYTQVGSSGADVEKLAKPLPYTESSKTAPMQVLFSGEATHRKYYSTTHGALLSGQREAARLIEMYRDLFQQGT
A549 cells were seeded at a density of 0.05-0.1×10^6 cells/mL in T175 flasks and cultured in 25 mL of culture medium consisting in RPMI 1640 medium (Gibco) supplemented with 10% fetal bovine serum (Gibco). Cells were passaged twice per week and used for CETSA assays before reaching confluency. One day prior to the CETSA cells were seeded in 384-well white assay plates (Corning) at 15000 cells per well. Briefly, cells were washed with PBS (Life Technologies Europe BV) and dissociated by adding 2 mL TrypLE™ Select (Life Technologies Europe BV). After 5 min at 37° C., cells were resuspended in culture medium, counted using a ViCell XR cell counter (ViCell) and seeded in the 384-well plates.
Compounds were pre-diluted in PBS to a final concentration of […] and 1% DMSO and serially diluted in PBS 1% DMSO. For compound-cell incubation, medium in the 384 well plates was replaced with 30 μL of serially diluted compounds. After incubation at 37° C. for 1 hour the liquid was removed and plates were heated to 55° C. for 5 minutes and then transferred to ice for 5 minutes. After the cooling step, cells were lysed by adding 15 μL 1× alphaLISA-buffer (Perkin Elmer) containing anti-SMOX monoclonal antibody #2 and anti-SMOX Fab-fragment #33 mixture at a concentration of 5 and 0.5 nM respectively. After one hour at RT, 5 μL anti-6×His alphaLISA acceptor beads (50 mg/L, AL128C, Perkin Elmer) were added to the wells followed by an additional incubation of one hour at RT. Then 5 μL anti-rabbit IgG alpha donor beads (200 mg/L was added to the wells. After one hour incubation at RT the alpha signal was read using an alpha compatible reader. MDL75257 (M2949, Sigma) was used as positive control for compound-SMOX interaction. Compound-SMOX interaction is detected through the comparison of the high alpha signal of the negative control with the much lower signal of the wells that contain SMOX binding compounds.

Another experiment addresses hPAOX (Homo sapiens (Human), UniProt Q6QHF9). The experiment in a line: Human PAOX assay (HyPerBlu chemiluminescent detection of hydrogen peroxide). The format is biochemical. The following applies: 60 pM recombinant PAOX, 20 μM N-acetylspermine substrate. The method, boiled down:
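His-tagged recombinant PAOX expressed in sf9 insect cells was used at 60 pM, with 20 μM N-acetylspermine as substrate. Hydrogen peroxide formed by the reaction was detected by chemiluminescence from a boronate probe (HyPerBlu). Inhibition appears as lower luminescence.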

Experiment [2] deals with T1, SMOX. Nature of the experiment: Human SMOX assay (HyPerBlu chemiluminescent detection of hydrogen peroxide). It is filed as biochemical. The following applies: 2.5 nM full length hSMOX, spermine substrate, 1 h at room temperature, luminescence read; read-out: SMOx_IC50. The method, boiled down:
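Full-length N-His human SMOX (2.5 nM, E. coli-expressed) was incubated 1 h at room temperature with 30 µM spermine, 11-point compound dilutions and 1.25% DMSO in pH 7.4 HEPES/NaCl/EGTA buffer. H2O2 was detected by HyPerBlu chemiluminescence after 30 min, and IC50 came from dose–response fits.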

For experiment [3] the following is noted: animal cancer models; cited from earlier work.
The conditions of experiment [4]: associated disease models; cited from earlier work.

hPAOX, sequence (Q6QHF9 whole entry): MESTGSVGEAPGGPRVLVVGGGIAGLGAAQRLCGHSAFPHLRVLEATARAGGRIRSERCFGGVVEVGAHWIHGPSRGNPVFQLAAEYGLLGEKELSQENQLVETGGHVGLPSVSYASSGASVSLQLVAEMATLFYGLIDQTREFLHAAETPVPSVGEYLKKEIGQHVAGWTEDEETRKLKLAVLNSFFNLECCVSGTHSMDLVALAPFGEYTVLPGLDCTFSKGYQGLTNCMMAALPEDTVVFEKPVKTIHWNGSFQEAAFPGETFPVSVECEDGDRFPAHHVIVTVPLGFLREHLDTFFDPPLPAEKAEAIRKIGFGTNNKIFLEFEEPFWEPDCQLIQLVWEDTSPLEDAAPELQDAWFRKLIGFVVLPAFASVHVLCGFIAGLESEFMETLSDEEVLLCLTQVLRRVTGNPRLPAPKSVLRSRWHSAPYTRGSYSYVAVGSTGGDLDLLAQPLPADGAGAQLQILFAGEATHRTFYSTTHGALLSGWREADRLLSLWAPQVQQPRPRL

`O=C(NCCCn1ccnc1)c1cc2nc(-c3ccccc3)cc(-c3ccc(O)cc3)n2n1` [Example 88, N-(3-(1H-imidazol-1-yl)propyl)-7-(4-hydroxyphenyl)-5-phenylpyrazolo[1,5-a]pyrimidine-2-carboxamide]: the “SMOx % recovery CETSA” value at SMOX [1] turned out to be 0%. Besides, the IC50 on hPAOX came to 1570 nM; on SMOX [2], 102 nM.
In the same order, the values of `N#Cc1cccc(-c2cc(-c3ccccc3)nc3cc(C(=O)NCCCn4ccnc4)nn23)c1` [Example 89, N-(3-(1H-imidazol-1-yl)propyl)-7-(3-cyanophenyl)-5-phenylpyrazolo[1,5-a]pyrimidine-2-carboxamide] are 0%, 879 nM and 159 nM.
For `N#Cc1ccc(-c2cc(-c3ccccc3)nc3cc(C(=O)NCCCn4ccnc4)nn23)cc1` [Example 90, N-(3-(1H-imidazol-1-yl)propyl)-7-(4-cyanophenyl)-5-phenylpyrazolo[1,5-a]pyrimidine-2-carboxamide], in that order: 3%, 1610 nM and 78 nM.
For `O=C(NCCCn1ccnc1)c1cc2nc(-c3ccccc3)cc(-c3ccccn3)n2n1` [Example 91, N-(3-(1H-imidazol-1-yl)propyl)-5-phenyl-7-(pyridin-2-yl)pyrazolo[1,5-a]pyrimidine-2-carboxamide], in that order: 111%, 2050 nM and 43 nM.
For the compound `CN1CC(NC(=O)c2cc3nc(-c4ccccc4)cc(-c4ccccn4)n3n2)C1` [Example 92, N-(1-methylazetidin-3-yl)-5-phenyl-7-(pyridin-2-yl)pyrazolo[1,5-a]pyrimidine-2-carboxamide], the “SMOx % recovery CETSA” value on SMOX [1] is recorded as 20%. Besides, the IC50 worked out at 520 nM on hPAOX and 239 nM on SMOX [2].
In the same order, the values of `O=C(NCCCn1ccnc1)c1cc2nc(-c3ccccc3)cc(C3CCCCC3)n2n1` [Example 107, N-(3-(1H-imidazol-1-yl)propyl)-7-cyclohexyl-5-phenylpyrazolo[1,5-a]pyrimidine-2-carboxamide] are 24%, 1270 nM and 22 nM.
In the case of `O=C(NCCCn1ccnc1)c1cc2nc(-c3ccccc3)cc(C3CCCCO3)n2n1` (centres unmarked) [Example 111, N-(3-(1H-imidazol-1-yl)propyl)-5-phenyl-7-(tetrahydro-2H-pyran-2-yl)pyrazolo[1,5-a]pyrimidine-2-carboxamide], the “SMOx % recovery CETSA” value on SMOX [1] turned out to be 52%. For the same compound, the figures for the IC50 at hPAOX and at SMOX [2] were 2920 nM and 58 nM, respectively.
Turning to `C=C=CCNCCCCNCC=C=C.Cl.Cl` [MDL 72527, N^1,N^4-di-2,3-butadienyl-1,4-butanediamine dihydrochloride], in experiment [3], the cancer incidence result is “significantly reduced cancer incidence”. Further, the “neuronal death and retinal degeneration” value in experiment [4] was “reduced neuronal death and retinal degeneration”.
